# Where two headings read alike, the source gives them in different places.
# Columns and labels:
# MRSA = experiment: Adjuvant broth microdilution (antibiotic MIC with SP-BIM at 50 μg/mL); format: cell-based, Staphylococcus aureus; details: antibiotic alone
# Streptococcus pneumoniae [1] = experiment: as above; format: cell-based; details: Streptococcus pneumoniae; Streptococcus pneumonia; antibiotic alone; Table 5; read-out: MIC of antibiotic, No compound
# Escherichia coli [2] = experiment: microbe, parasite or virus in culture; format: cell-based; details: antibiotic alone, Table 6, read-out: MIC of antibiotic, No compound
# Klebsiella pneumoniae [3] = experiment: Adjuvant broth microdilution (antibiotic MIC with SP-BIM at 50 μg/mL); format: cell-based; details: antibiotic alone
# Bacillus cereus [4] = experiment: as above; format: cell-based; details: antibiotic alone, Table 9
# Escherichia coli O157:H7 = format: cell-based; details: antibiotic alone, no SP-BIM
# Staphylococcus aureus = experiment: Checkerboard synergy (FICI) of antibiotics with SP-BIM; format: cell-based; details: Staphylococcus aureus, Staphylococcus aureus; for MIC: 24 h, antibiotic alone, read-out: MIC antibiotic only
# Streptococcus pneumoniae [5] = experiment: as above; format: cell-based; details: Streptococcus pneumonia (title: Streptococcus pyogenes)
# Bacillus cereus [6] = experiment: as above; format: cell-based; details: for MIC: 24 h, antibiotic alone, read-out: MIC antibiotic only
# Klebsiella pneumoniae [7] = experiment: as above; format: cell-based; details: for MIC: 24 h, antibiotic alone, read-out: MIC antibiotic only
# clinical strains of MRSA = experiment: Kirby Bauer disc diffusion susceptibility profile; format: cell-based, Staphylococcus aureus; details: for Zone of clearance: 35° C., 24 hours, average n=3; for Interpretive standard (resistant/susceptible): zones vs EUCAST breakpoints (Table 30)
# Escherichia coli [8] = experiment: Checkerboard synergy (FICI) of antibiotics with SP-BIM; design: MIC SP-BIM 13 only / MIC in combination: Antibiotic: unit not given beside the values; details: for MIC: 24 h
# Candida albicans = experiment: as above; design: MIC SP-BIM 13 only / MIC in combination: Antibiotic / MIC antibiotic only: unit not given beside the values
# [9] = SP-BIM 9 in combination with the labelled antibiotic
# [10] = SP-BIM 13 in combination with the labelled antibiotic
# [11] = antibiotic in combination with SP-BIM 9
# [12] = antibiotic in combination with SP-BIM 13
# [13] = MIC of the antibiotic in combination with SP-BIM 13
smiles,measurement,setting,value
"CC[C@H]1OC(=O)[C@H](C)[C@@H](O[C@H]2C[C@@](C)(OC)[C@@H](O)[C@H](C)O2)[C@H](C)[C@@H](O[C@@H]2O[C@H](C)C[C@H](N(C)C)[C@H]2O)[C@](C)(O)C[C@@H](C)C(=O)[C@H](C)[C@@H](O)[C@]1(C)O [Erythromycin, erythromycin]",MIC,"MRSA; Staphylococcus aureus, Table 4, read-out: MIC of antibiotic, No compound",4 µg/mL
same,"MIC of antibiotic, No Compound",MRSA; Table 8 (series SP-BIMs 21-29),8 µg/mL
same,MIC,Streptococcus pneumoniae [1],4 µg/mL
same,MIC,Escherichia coli [2],> 250 µg/mL
same,"MIC of antibiotic, No Compound","Klebsiella pneumoniae [3]; Klebsiella pneumonia, no SP-BIM",>250 µg/mL
same,MIC,"Klebsiella pneumoniae [3]; Klebsiella pneumoniae, Table 7, read-out: MIC of antibiotic, No compound",32 µg/mL
same,"MIC of antibiotic, No Compound",Bacillus cereus [4],4 µg/mL
same,"MIC of antibiotic, No Compound",Escherichia coli O157:H7,250 µg/mL
same,MIC,Staphylococcus aureus; SP-BIM 9 checkerboard,0.1 µg/mL
same,MIC,Staphylococcus aureus; SP-BIM 13 checkerboard,0.1 µg/mL
same,FIC of SP-BIM 9,Staphylococcus aureus; [9],0.50
same,FIC of SP-BIM 13,Staphylococcus aureus; [10],0.5
same,Interpretation,Staphylococcus aureus; antibiotic + SP-BIM 9,Additive (Additive: FICI>0.5-1.0)
same,Σ FIC,Staphylococcus aureus; antibiotic + SP-BIM 9,<0.70
same,Interpretation,Staphylococcus aureus; antibiotic + SP-BIM 13,Additive (Additive: FICI>0.5-1.0)
same,Σ FIC,Staphylococcus aureus; antibiotic + SP-BIM 13,0.7
same,"MIC in combination, Antibiotic",Staphylococcus aureus; [11],0.05 µg/mL
same,"MIC in combination, Antibiotic",Staphylococcus aureus; [12],0.02 µg/mL
same,FIC of antibiotic,Staphylococcus aureus; in combination with SP-BIM 9,0.20
same,FIC of antibiotic,Staphylococcus aureus; in combination with SP-BIM 13,0.2
same,FIC of SP-BIM 9,Streptococcus pneumoniae [5]; [9],1.00
same,Interpretation,Streptococcus pneumoniae [5]; antibiotic + SP-BIM 9,Indifference
same,Σ FIC,Streptococcus pneumoniae [5]; antibiotic + SP-BIM 9,<2.00
same,"MIC in combination, Antibiotic",Streptococcus pneumoniae [5]; [11],>250 µg/mL
same,FIC of antibiotic,Streptococcus pneumoniae [5]; in combination with SP-BIM 9,1.00
same,MIC,"Streptococcus pneumoniae [5]; Streptococcus pneumoniae, 24 h, antibiotic alone, SP-BIM 9 checkerboard, read-out: MIC antibiotic only",> 250 µg/mL
same,MIC,Bacillus cereus [6]; SP-BIM 9 checkerboard,16 µg/mL
same,MIC,Bacillus cereus [6]; SP-BIM 13 checkerboard,16 µg/mL
same,"MIC in combination, SP-BIM 9",Bacillus cereus [6]; SP-BIM 9 concentration in combination with the labelled antibiotic,>250 µg/mL
same,FIC of SP-BIM 9,Bacillus cereus [6]; [9],1
same,FIC of SP-BIM 13,Bacillus cereus [6]; [10],0.5
same,Interpretation,Bacillus cereus [6]; antibiotic + SP-BIM 9,Indifferent (Indifferent: FICI>1.0-4.0)
same,Σ FIC,Bacillus cereus [6]; antibiotic + SP-BIM 9,<2.0
same,Interpretation,Bacillus cereus [6]; antibiotic + SP-BIM 13,Synergy (Synergy: FICI≤0.5)
same,Σ FIC,Bacillus cereus [6]; antibiotic + SP-BIM 13,0.5
same,"MIC in combination, Antibiotic",Bacillus cereus [6]; [11],16 µg/mL
same,"MIC in combination, Antibiotic",Bacillus cereus [6]; [12],0.05 µg/mL
same,FIC of antibiotic,Bacillus cereus [6]; in combination with SP-BIM 9,1
same,FIC of antibiotic,Bacillus cereus [6]; in combination with SP-BIM 13,0.01
same,MIC,Klebsiella pneumoniae [7]; SP-BIM 9 checkerboard,250 µg/mL
same,MIC,Klebsiella pneumoniae [7]; SP-BIM 13 checkerboard,16 µg/mL
same,FIC of SP-BIM 9,Klebsiella pneumoniae [7]; [9],0.5
same,FIC of SP-BIM 13,Klebsiella pneumoniae [7]; [10],1.0
same,Interpretation,Klebsiella pneumoniae [7]; antibiotic + SP-BIM 9,Additive (Additive: FICI>0.5-1.0)
same,Σ FIC,Klebsiella pneumoniae [7]; antibiotic + SP-BIM 9,<0.8
same,Interpretation,Klebsiella pneumoniae [7]; antibiotic + SP-BIM 13,Indifferent (Indifferent: FICI>1.0-4.0)
same,Σ FIC,Klebsiella pneumoniae [7]; antibiotic + SP-BIM 13,<2.0
same,"MIC in combination, Antibiotic",Klebsiella pneumoniae [7]; [11],63 µg/mL
same,"MIC in combination, Antibiotic",Klebsiella pneumoniae [7]; [12],16 µg/mL
same,FIC of antibiotic,Klebsiella pneumoniae [7]; in combination with SP-BIM 9,0.252
same,FIC of antibiotic,Klebsiella pneumoniae [7]; in combination with SP-BIM 13,1.0
same,Zone of clearance,clinical strains of MRSA; MRSA strain 1594,19.0 mm
same,Interpretive standard (resistant/susceptible),clinical strains of MRSA; MRSA strain 1594,S
same,Zone of clearance,clinical strains of MRSA; MRSA strain 1621,21.5 mm
same,Interpretive standard (resistant/susceptible),clinical strains of MRSA; MRSA strain 1621,S
same,Zone of clearance,clinical strains of MRSA; MRSA strain 5455,20.5 mm
same,Interpretive standard (resistant/susceptible),clinical strains of MRSA; MRSA strain 5455,S
same,Zone of clearance,clinical strains of MRSA; MRSA strain 5872,0.0 mm
same,Interpretive standard (resistant/susceptible),clinical strains of MRSA; MRSA strain 5872,R
same,Zone of clearance,clinical strains of MRSA; MRSA strain 7153,18.5 mm
same,Interpretive standard (resistant/susceptible),clinical strains of MRSA; MRSA strain 7153,S
same,Zone of clearance,clinical strains of MRSA; MRSA strain 7172,17.5 mm
same,Interpretive standard (resistant/susceptible),clinical strains of MRSA; MRSA strain 7172,S
same,Zone of clearance,clinical strains of MRSA; MRSA strain 7698,17.5 mm
same,Interpretive standard (resistant/susceptible),clinical strains of MRSA; MRSA strain 7698,S
same,Zone of clearance,clinical strains of MRSA; MRSA strain 10132,9.0 mm
same,Interpretive standard (resistant/susceptible),clinical strains of MRSA; MRSA strain 10132,R
same,MIC,"Escherichia coli [8]; read-out: MIC antibiotic only, Escherichia coli, antibiotic alone",16 µg/mL
same,MIC,"Escherichia coli [8]; read-out: MIC antibiotic only, Escherichia coli, antibiotic alone, SP-BIM 9 checkerboard",250 µg/mL
same,MIC in combination: Antibiotic,Escherichia coli [8]; [13],16
same,FIC of SP-BIM 9,Escherichia coli [8]; [9],1
same,FIC of SP-BIM 13,Escherichia coli [8]; [10],1.0
same,Interpretation,Escherichia coli [8]; antibiotic + SP-BIM 9,Indifferent (Indifferent: FICI>1.0-4.0)
same,Σ FIC,Escherichia coli [8]; antibiotic + SP-BIM 9,<2.0
same,Interpretation,Escherichia coli [8]; antibiotic + SP-BIM 13,Indifferent (Indifferent: FICI>1.0-4.0)
same,Σ FIC,Escherichia coli [8]; antibiotic + SP-BIM 13,<2.0
same,"MIC in combination, Antibiotic",Escherichia coli [8]; [11],250 µg/mL
same,FIC of antibiotic,Escherichia coli [8]; combination with SP-BIM 13,1.0
same,FIC of antibiotic,Escherichia coli [8]; in combination with SP-BIM 9,1
same,MIC,"Candida albicans; 24 h, read-out: MIC antibiotic only",16 µg/mL
same,MIC in combination: Antibiotic,Candida albicans; [13],1
same,FIC of SP-BIM 13,Candida albicans; [10],1.0
same,Interpretation,Candida albicans; antibiotic + SP-BIM 13,Indifferent (Indifferent: FICI>1.0-4.0)
same,Σ FIC,Candida albicans; antibiotic + SP-BIM 13,<1.1
same,FIC of antibiotic,Candida albicans; combination with SP-BIM 13,0.1
